Source: patent US10975068B2, “6-aminopyridin-3-yl thiazoles as modulators of RORγT” (Janssen Pharmaceutica NV, priority 2016, dated 2021)
Like-named read-outs stand apart in the source and are kept apart here.

Legend:
[1] = biological target: human RORγt ligand binding domain (RORγt LBD) (Homo sapiens (Human), UniProt P51449); assay: RORγt ThermoFluor® assay (thermal shift binding); conditions: read-out: ThermoFluor® Assay, Kd
In short: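 His-tagged human RORγt LBD (0.065 mg/mL) with 60 μM 1,8-ANS in 100 mM Hepes pH 7.0, 10 mM NaCl, 2.5 mM GSH, 0.002% Tween-20 was heated at 1 °C/min.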

[2] = system: IL-17 production by CD4 T cells; assay: Human Th17 assay; type: cell-based
Text: The human Th17 assay tests the effect of RORγt modulatory compounds on IL-17 production by CD4 T cells under conditions which favor Th17 differentiation. Total CD4^+ T cells were isolated from the peripheral blood mononuclear cells (PBMC) of healthy donors using a CD4^+ T cell isolation kit II, following the manufacturer's instructions (Miltenyi Biotec). Cells were resuspended in a medium of RPMI-1640 supplemented with 10% fetal bovine serum, penicillin, streptomycin, glutamate, and β-mercaptoethanol and were added to 96-well plates at 1.5×10^5 per 100 μL per well. 50 μL of compound at titrated concentrations in DMSO were added into each well at final DMSO concentration at 0.2%. Cells were incubated for 1 hour, then 50 μL of Th17 cell differentiation medium was added to each well. The final concentrations of antibodies and cytokines (R&D Systems) in differentiation medium were: 3×10^6/mL anti-CD3/CD28 beads (prepared using human T cell activation/expansion kit, Miltenyi Biotec), 10 μg/mL anti-IL4, 10 μg/mL anti-IFNγ, 10 ng/mL IL1β, 10 ng/mL IL23, 50 ng/mL IL6, 3 ng/mL TGFβ and 20 U/mL IL2. Cells were cultured at 37° C. and 5% CO2 for 3 days. Supernatants were collected and the accumulated IL-17 in culture was measured by using MULTI-SPOT® Cytokine Plate following manufacture's instruction (Meso Scale Discovery). The plate was read using Sector Imager 6000, and IL-17 concentration was extrapolated from the standard curve. The IC50s were determined by GraphPad.

[3] = read-out: Human Th17 Assay, IC50

Sequence of human RORγt ligand binding domain (RORγt LBD) (P51449 other isoform, or with tags, fused parts or gaps): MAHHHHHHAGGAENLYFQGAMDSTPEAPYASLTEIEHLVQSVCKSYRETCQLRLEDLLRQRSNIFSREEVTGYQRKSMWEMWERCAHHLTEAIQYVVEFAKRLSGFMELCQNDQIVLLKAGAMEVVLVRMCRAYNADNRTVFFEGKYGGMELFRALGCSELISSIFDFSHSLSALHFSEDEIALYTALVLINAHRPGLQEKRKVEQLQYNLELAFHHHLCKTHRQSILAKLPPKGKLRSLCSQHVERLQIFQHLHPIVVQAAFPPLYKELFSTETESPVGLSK

Row | SMILES | Kd [1] [nM] | IC50 [2, 3] [µM] | IC50 ([2]; read-out: Human Th17 Assay, IC50 (μM)) [µM]
1 | C[C@H]1CCCCN1C(=O)c1nc(C(=O)NCC(C)(C)O)sc1-c1cnc(NC2CCCC2)cc1C(F)(F)F [Example 27, (S)-5-(6-(Cyclopentylamino)-4-(trifluoromethyl)pyridin-3-yl)-N-(2-hydroxy-2-methylpropyl)-4-(2-methylpiperidine-1-carbonyl)thiazole-2-carboxamide] | 0.52 | 0.016 | –
2 | C[C@H](Nc1cc(C(F)F)c(-c2sc(C(=O)NCC(C)(C)O)nc2C(=O)N2CC(F)(F)C[C@@H]2C)cn1)C(F)(F)F [Example 135] | 3.5 | 0.044 | –
3 | C[C@H]1CCCCN1C(=O)c1nc(C(=O)NCC(C)(C)O)sc1-c1cnc(NCC(C)(C)C)cc1C(F)(F)F [Example 86, (S)—N-(2-Hydroxy-2-methylpropyl)-4-(2-methylpiperidine-1-carbonyl)-5-(6-(neopentylamino)-4-(trifluoromethyl)pyridin-3-yl)thiazole-2-carboxamide] | 0.17 | 0.0028 | –
4 | C[C@H]1CC(F)(F)CN1C(=O)c1nc(C(=O)NCC(C)(C)O)sc1-c1cnc(NC2(C(F)(F)F)CCC2)cc1C(F)F [Example 124, (S)-4-(4,4-Difluoro-2-methylpyrrolidine-1-carbonyl)-5-(4-(difluoromethyl)-6-((1-(trifluoromethyl)cyclobutyl)amino)pyridin-3-yl)-N-(2-hydroxy-2-methylpropyl)thiazole-2-carboxamide] | 0.52 | 0.0067 | –
5 | C[C@H](Nc1cc(C(F)(F)F)c(-c2sc(C(=O)NCC(C)(C)O)nc2C(=O)N2CC(F)(F)C[C@@H]2C)cn1)C1CC1 [Example 142, 5-(6-(((S)-1-Cyclopropylethyl)amino)-4-(trifluormethyl)pyridin-3-yl)-4-((S)-4,4-difluoro-2-methylpyrrolidine-1-carbonyl)-N-(2-hydroxy-2-methylpropyl)thiazole-2-carboxamide] | 1.4 | 0.019 | –
6 | C[C@H](Nc1cc(C(F)F)c(-c2sc(C(=O)NCC(C)(C)O)nc2C(=O)N2CCCC[C@@H]2C)cn1)C1CC1 [Example 37, 5-(6-(((S)-1-Cyclopropylethyl)amino)-4-(difluoromethyl)pyridin-3-yl)-N-(2-hydroxy-2-methylpropyl)-4-((S)-2-methylpiperidine-1-carbonyl)thiazole-2-carboxamide] | 0.65 | 0.052 | –
7 | CC(C)(C)CNc1cc(C(F)F)c(-c2sc(C(=O)NCC(C)(C)O)nc2C(=O)N2C3CCC2CC3)cn1 [Example 116, 4-((1s,4s)-7-Azabicyclo[2.2.1]heptane-7-carbonyl)-5-(4-(difluoromethyl)-6-(neopentylamino)pyridin-3-yl)-N-(2-hydroxy-2-methylpropyl)thiazole-2-carboxamide] | 3.6 | – | 0.044
8 | C[C@H]1CCCN1C(=O)c1nc(C(=O)NCC(C)(C)O)sc1-c1cnc(NC(C)(C)C)cc1C(F)(F)F [Example 52, (S)-5-(6-(tert-Butylamino)-4-(trifluoromethyl)pyridin-3-yl)-N-(2-hydroxy-2-methylpropyl)-4-(2-methylpyrrolidine-1-carbonyl)thiazole-2-carboxamide] | 1.2 | 0.01 | –
9 | C[C@H]1CCCCN1C(=O)c1nc(C(=O)NCC(C)(C)O)sc1-c1cnc(NC2CCCC2)cc1C(F)F [Example 41, (S)-5-(6-(Cyclopentylamino)-4-(difluoromethyl)pyridin-3-yl)-N-(2-hydroxy-2-methylpropyl)-4-(2-methylpiperidine-1-carbonyl)thiazole-2-carboxamide] | 0.74 | 0.043 | –
10 | C[C@H](NC(=O)c1nc(C(=O)N2CC(F)(F)C[C@@H]2C)c(-c2cnc(N[C@@H](C)C(F)(F)F)cc2C(F)F)s1)C(C)(C)O [Example 197] | 1.7 | 0.03 | –
